Structures can show the parent of a compound that is named as a salt.
How the values were obtained:
Rabbits = test: Five day toxicology study, topical dosing twice a day; format: in vivo, rabbit; settings: CMC based versus borate buffered formulations
Method: This study was followed up by a five day toxicology study which included borate buffered formulations ranging from 0.1 to 0.75% (w/v) memantine, CMC based formulations ranging from 0.1 to 1.0% (w/v) memantine and the relevant placebos. All formulations were preserved with 20 ppm BAK.
The formulations were dosed with 35 μL drops topically to the cul-de-sac of rabbits twice a day for […]. The rabbits were evaluated by gross clinical observation of irritation, ranked as none, slight, mild, moderate or severe. The irritation score was a sum of lacrimation, chemosis, hyperemia and tolerability all scored from none to severe.

[1] = Autoradiography after topical ophthalmic instillation; format: in vivo, rabbit
Method: General disposition of topical ophthalmic 1-amino-3,5-dimethyladamantane hydrochloride (memantine) instillation was assessed by autoradiography. Briefly, albino and pigmented rabbits were dosed via topical ophthalmic instillation with a 0.74% (w/v) aqueous isotonic memantine solution having a pH of 7.4. After dosing, autoradiographic sections of the eye were acquired at 0.25, 0.5, 1, and 2 and 24 hours post dosing.

[2] = Retina levels after topical versus oral dosing over seven days (Example 9); settings: albino, rabbit, in vivo, 1.76 mg/kg/day
Method: Once a day topical dosing of 0.37% memantine HCl (w/v) borate buffered solution (0.242 mg/kg/day), was compared to daily oral dosing of memantine HCL, 1.76 mg/kg/day, in albino rabbits over seven days. […] Peak levels obtained by topical dosing far exceeded levels thought to be possible by oral dosing. […] Thus, topical dosing of this formulation is […].

in vivo = settings: rabbit, po, 2 mg/kg
Method: Tissue concentrations of memantine were determined after oral and topical dosing. Rabbits were dosed topically with 35 μl of a 0.1% (w/v) aqueous solution of radiolabeled memantine twice a day to both eyes for 7 days (equivalent to approximately 0.07 mg/kg/day). This composition is detailed in Table 1 as Composition 2. Another subset of rabbits was dosed orally with 2 mg/kg radiolabeled memantine for seven days. At the end of the dosing period ocular tissue concentrations were quantified.

[3] = Human oral clinical pharmacokinetic study; format: in vivo
Method: Assuming a 31% protein binding and a retina-choroid concentration equivalent to the free-unbound plasma memantine concentration, the peak retinal level of memantine would be 0.30 μM.

[4] = assumed for the calculation; cited from earlier work
[5] = cited from earlier work

For `CC12CC3CC(C)(C1)CC(N)(C3)C2` [memantine, 1-amino-3,5-dimethyladamantane hydrochloride], the “improvement of tolerability, factor” value (Rabbits) was 5-8, the “half-life in the posterior globe (qualitative)” value ([1]; albino and pigmented rabbits, topical 0.74% (w/v) solution) was “relatively long” and the “binding to ocular melanin” value ([1]; pigmented tissues, autoradiography intensity) was “binds to the ocular melanin”. For the same compound, the “presence in posterior ocular tissues” value ([1]; topical 0.74% (w/v) aqueous isotonic solution pH 7.4, albino and pigmented rabbits) was “present in the posterior sclera, choroid and/or retina”, the concentration at 7 days [2] was 100 ng/mL and the concentration at 7 days (in vivo) was 107 ng/mL. For the same compound, the “peak retinal level (calculated)” value ([3]; oral 20 mg per day, assuming 31% protein binding and retina-choroid equal to free plasma concentration) was 0.30 µM, the mean plasma concentration ([3]; oral dose of 20 mg per day) was 95 ng/mL and the protein binding [4] was 31%. The “dose limiting side effects” value ([5]; oral delivery) was “dizziness, lightheadedness and slurred speech” and the “other adverse events associated with CNS excitation” value ([5]; oral dosages of 5 to 30 mg/day) was “anxiety, dissociation, dry mouth, headache, nervousness, slurred speech, tiredness and weakness”.

Reference: US20050031652A1, “Compositions and methods comprising memantine and polyanionic polymers” (priority 2003, published 2005)
